According to paper PMC9646841, “A bead-based GPCR phosphorylation immunoassay for high-throughput ligand profiling and GRK inhibitor screening” (Communications Biology, 2022):
Several values for one entry are separate records, joined by “and”; a condition that tells them apart may be missing. Equal entries are not always repeated. Where two headings read alike, the source gives them in different places. Square brackets hold non-standard residues; d marks the D form. Peptide text beside a SMILES is read from it. Cha = N[C@@H](CC1CCCCC1)C(=O)O; dCha = N[C@H](CC1CCCCC1)C(=O)O

What was measured:
[1] = molecular target: T1, C5a1 (Homo sapiens, UniProt P21730); test: Total C5a1 loading control (np-C5a1 / anti-HA); type: cell-based
T1 construct: host or cells: Control-HEK293, ΔGRK2/3-HEK293, ΔGRK5/6-HEK293, stably expressing
T1 sequence (P21730 1-350): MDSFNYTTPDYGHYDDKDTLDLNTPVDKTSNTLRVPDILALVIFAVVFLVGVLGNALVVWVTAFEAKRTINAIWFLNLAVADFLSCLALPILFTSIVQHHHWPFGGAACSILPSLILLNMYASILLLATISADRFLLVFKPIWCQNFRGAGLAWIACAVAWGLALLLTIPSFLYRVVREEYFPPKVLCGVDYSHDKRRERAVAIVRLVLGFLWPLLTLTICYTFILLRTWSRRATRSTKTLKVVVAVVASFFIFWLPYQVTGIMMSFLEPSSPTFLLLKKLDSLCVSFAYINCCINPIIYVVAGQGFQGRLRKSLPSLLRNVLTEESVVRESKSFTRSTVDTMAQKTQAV

[2] = molecular target: T1, C5a1; test: pS332/pS334-C5a1 7TM phosphorylation assay; type: cell-based; conditions: for Emax: read-out: Emax (% Control C028) pS332/pS334-C5a1
[3] = Control-C5aR1-HEK293 run beside the ΔGRK2/3 block, C028 10 µM
[4] = ΔGRK2/3-C5aR1-HEK293, C028 0.01 µM, concentration series
[5] = ΔGRK2/3-C5aR1-HEK293, C028 1 µM, concentration series
[6] = ΔGRK2/3-C5aR1-HEK293, C028 10 µM (concentration series)

Compound: N=C(N)NCCC[C@@H](NC(=O)[C@H](CC1CCCCC1)NC(=O)[C@@H](CC1CCCCC1)NC(=O)[C@@H]1CCCN1C(=O)[C@H](CCCCN)NC(=O)[C@@H](N)Cc1ccccc1)C(=O)O [C028, FKP-(D-Cha)-Cha-r] (H-FKP[dCha][Cha][dR]-OH)
- np signal, raw ([1]; C028 0.3 µM, ΔGRK5/6-C5aR1-HEK293): 1.6298 and 1.4921 and 1.6333 and 1.6817 and 1.6758
- np signal, raw ([1]; C028 1 µM, ΔGRK2/3-C5aR1-HEK293): 1.3996 and 1.4952 and 2.1996 and 1.4182 and 2.2245
- np signal, raw ([1]; C028 1 µM, ΔGRK5/6-C5aR1-HEK293): 1.9501 and 1.5997 and 1.4175 and 1.1243 and 1.5682
- np signal, raw ([1]; C028 3 µM, Control-C5aR1-HEK293): 1.9121 and 1.6861 and 1.569 and 1.3939 and 2.1397
- np signal, raw ([1]; C028 3 µM, ΔGRK2/3-C5aR1-HEK293): 1.5651 and 1.596 and 2.1319 and 1.2489 and 1.5422
- np signal, raw ([1]; C028 3 µM, ΔGRK5/6-C5aR1-HEK293): 1.6842 and 1.511 and 1.6612 and 1.9363 and 1.5067
- np signal, raw ([1]; C028 10 µM, Control-C5aR1-HEK293, concentration series): 1.6592 and 1.6457 and 1.7245 and 1.2748 and 1.696
- np signal, raw ([1]; C028 10 µM, Control-C5aR1-HEK293, first 0/10 µM pair): 1.6592 and 1.6457 and 1.3473 and 1.1686 and 1.879
- np signal, raw ([1]; C028 10 µM, Control-C5aR1-HEK293, last 0/10 µM pair of Control block): 1.9885 and 1.4944 and 1.4087 and 1.155 and 1.5321
- np signal, raw ([1]; C028 10 µM, Control-C5aR1-HEK293 beside ΔGRK2/3 block): 2.0332 and 1.1801 and 1.5046 and 1.4934 and 1.6943
- np signal, raw ([1]; C028 10 µM, Control-C5aR1-HEK293 beside ΔGRK5/6 block): 1.9038 and 2.0072 and 1.4662 and 1.7694 and 1.271
- np signal, raw ([1]; C028 10 µM, ΔGRK2/3-C5aR1-HEK293, concentration series): 1.5246 and 1.7106 and 1.3042 and 1.3389 and 1.7008
- np signal, raw ([1]; C028 10 µM, ΔGRK2/3-C5aR1-HEK293, first 0/10 µM pair): 1.2045 and 1.6486 and 1.422 and 1.3225 and 1.7342
- np signal, raw ([1]; C028 10 µM, ΔGRK5/6-C5aR1-HEK293, concentration series): 2.2585 and 1.8872 and 1.4472 and 1.4134 and 1.6269
- np signal, raw ([1]; C028 10 µM, ΔGRK5/6-C5aR1-HEK293, first 0/10 µM pair): 2.1115 and 2.0551 and 1.5281 and 1.3721 and 1.3579
- np (raw signal) ([1]; Control-C5aR1-HEK293, C028 0.01 µM, concentration series): 1.9803 and 1.5907 and 1.3538 and 1.2438 and 1.436 and 1.5903 and 1.7448 and 1.269
- np (raw signal) ([1]; Control-C5aR1-HEK293, C028 0.3 µM, concentration series): 1.588 and 1.7265 and 1.5961 and 0.9789 and 1.4851 and 1.7215 and 1.957 and 1.5097
- np (total C5aR1), raw signal ([1]; Control-C5aR1-HEK293, C028 0.01 µM): 1.3949 and 1.3266 and 1.5751 and 1.603 and 1.9857 and 2.1902
- np (total C5aR1), raw signal ([1]; Control-C5aR1-HEK293, C028 0.1 µM): 1.088 and 1.5141 and 1.6432 and 1.3119 and 2.129 and 1.8032
- np (total C5aR1), raw signal ([1]; Control-C5aR1-HEK293, C028 0.3 µM): 1.3568 and 1.8238 and 1.5485 and 1.2855 and 1.9306 and 1.5751
- np (total C5aR1), raw signal ([1]; Control-C5aR1-HEK293, C028 1 µM): 1.4754 and 1.6232 and 1.785 and 1.3295 and 1.6944 and 2.063
- np (total C5aR1), raw signal ([1]; Control-C5aR1-HEK293, C028 3 µM): 1.2425 and 1.4862 and 1.9242 and 1.5919 and 2.0564 and 1.6025
- np (total C5aR1), raw signal ([1]; Control-C5aR1-HEK293 beside ΔGRK5/6 series, C028 10 µM): 2.3386 and 2.3729 and 1.6554 and 1.7709 and 1.3577 and 1.3562 and 1.5255
- np (raw signal) [1, 3]: 1.8085 and 2.0631 and 1.4603 and 1.3915 and 1.4955 and 1.1807
- np (raw signal) ([1]; Control-C5aR1-HEK293 run beside the ΔGRK5/6 block, C028 10 µM): 1.9033 and 1.7695 and 1.3647 and 1.1555 and 2.1969 and 1.68 and 1.7195 and 1.5597
- np (raw signal) [1, 4]: 1.9037 and 1.8736 and 1.6092 and 1.5411 and 1.8666 and 1.9049 and 1.8208 and 1.3708
- np (raw signal) ([1]; ΔGRK2/3-C5aR1-HEK293, C028 0.1 µM, concentration series): 1.8343 and 1.6381 and 1.9187 and 1.6055 and 2.1604 and 1.5161 and 1.9037 and 1.8736
- np (raw signal) ([1]; ΔGRK2/3-C5aR1-HEK293, C028 0.3 µM, concentration series): 1.6659 and 1.792 and 1.7372 and 1.7036 and 2.059 and 1.9288 and 1.8343 and 1.6381
- np (raw signal) [1, 5]: 1.7539 and 1.6924 and 1.7772 and 1.4498 and 2.0307 and 1.5417 and 1.6659 and 1.792
- np (raw signal) ([1]; ΔGRK2/3-C5aR1-HEK293, C028 3 µM, concentration series): 1.6846 and 1.3473 and 1.4287 and 1.3661 and 2.0103 and 1.5757 and 1.7539 and 1.6924
- np (total C5aR1), raw signal ([1]; ΔGRK2/3-C5aR1-HEK293, C028 0.01 µM): 1.9989 and 2.1791 and 2.1472 and 1.695 and 1.8681 and 1.8947 and 1.79
- np (total C5aR1), raw signal ([1]; ΔGRK2/3-C5aR1-HEK293, C028 0.1 µM): 2.1466 and 2.0776 and 2.1938 and 2.0797 and 1.633 and 1.3767 and 1.2578
- np (total C5aR1), raw signal ([1]; ΔGRK2/3-C5aR1-HEK293, C028 0.3 µM): 1.9738 and 1.8316 and 2.0611 and 2.0567 and 1.8444 and 1.4691 and 1.6375
- np (total C5aR1), raw signal ([1]; ΔGRK2/3-C5aR1-HEK293, C028 1 µM): 1.8294 and 2.1206 and 2.1815 and 1.9867 and 1.4524 and 1.8069 and 1.3881
- np (total C5aR1), raw signal ([1]; ΔGRK2/3-C5aR1-HEK293, C028 3 µM): 1.9342 and 1.5491 and 2.0615 and 1.8761 and 1.3783 and 1.8045 and 1.3094
- np (total C5aR1), raw signal ([1]; ΔGRK2/3-C5aR1-HEK293, C028 10 µM (0/10 µM pair)): 1.6776 and 1.597 and 2.0065 and 1.9839 and 1.7864 and 1.8111 and 1.5147
- np (raw signal) [1, 6]: 1.6617 and 1.8239 and 1.3136 and 1.3724 and 1.8559 and 1.6
- np (total C5aR1), raw signal [1, 6]: 2.0002 and 1.769 and 2.052 and 2.2047 and 1.6138 and 1.7275 and 1.9566
- np (raw signal) ([1]; ΔGRK5/6-C5aR1-HEK293, C028 0.3 µM, concentration series): 1.7318 and 1.8541 and 1.5067 and 1.2715 and 1.8493 and 2.0046 and 1.7672 and 1.7676
- np (raw signal) ([1]; ΔGRK5/6-C5aR1-HEK293, C028 1 µM, concentration series): 2.0252 and 1.7968 and 1.4934 and 1.2437 and 2.0647 and 1.7841 and 1.4601 and 1.5886
- np (raw signal) ([1]; ΔGRK5/6-C5aR1-HEK293, C028 10 µM, first 0/10 µM column pair): 1.7829 and 1.9246 and 1.5744 and 1.3841 and 1.8642 and 1.9552 and 1.5996 and 1.6914
- np (total C5aR1), raw signal ([1]; ΔGRK5/6-C5aR1-HEK293, C028 10 µM (0/10 µM pair)): 1.7545 and 1.6551 and 1.4386 and 1.778 and 1.4304 and 1.6743 and 2.0075
- np (total C5aR1), raw signal ([1]; ΔGRK5/6-C5aR1-HEK293, C028 10 µM (concentration series)): 1.8811 and 1.8348 and 1.6561 and 1.4006 and 1.0888 and 1.1737 and 1.1522
- OD405 max pS332/pS334-C5a1 [2]: 1.06
- OD405 min pS332/pS334-C5a1 [2]: 0.11
- pS332/pS334 normalized ([2]; Control-C5aR1-HEK293, C028 10 µM (concentration series)): 95.44% and 132.42% and 80.61% and 80.15% and 121.12% and 109.12% and 102.49% and 106.48%
- pS332/pS334 (raw signal) [2, 3]: 0.7901 and 0.7373 and 0.8202 and 0.7545 and 1.029 and 1.2201
- Emax ([2]; Control-HEK293): 100%
- EC50 ([2]; pEC50 pS332/pS334-C5a1, Control-HEK293): 0.398 µM
- EC50 ([2]; pEC50 pS332/pS334-C5a1, ΔGRK2/3-HEK293): 0.501 µM
- pS332/pS334 (raw signal) [2, 4]: 0.1764 and 0.1748 and 0.1484 and 0.1388 and 0.1181 and 0.1479 and 0.1441
- pS332/pS334 (raw signal) [2, 5]: 0.699 and 0.3955 and 0.6071 and 0.387 and 0.4065 and 0.4411 and 0.6614 and 0.6847
- pS332/pS334 (raw signal) ([2]; ΔGRK2/3-C5aR1-HEK293, C028 10 µM, first 0/10 µM column pair): 0.4715 and 0.6645 and 0.5267 and 0.3753 and 0.6914 and 0.6912 and 0.5711 and 0.6282
- Emax ([2]; ΔGRK2/3-HEK293): 70.2%
- Emax ([2]; ΔGRK5/6-HEK293): 50.8%
